Measured values: US11085056B2, “Transfection complexes and methods of using the same” (MOLECULAR TRANSFER, INC., priority 2015, dated 2021)

How the values were obtained:
HeLa Cells [1] = experiment: Transfection of HeLa cells with DOTMA/SEQ ID NO: 72/peptide compared with Lipofectamine 2000; type: cell-based; conditions: fusogenic peptide 0.1 mg/mL
In short: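 HeLa cells at 60–70% confluence received 0.01 mL of complexes of EF1Alpha eGFP plasmid (5 μg/mL in OptiMEM) with DOTMA/DOPE (1:1) plus R12-linked peptide, with fusogenic peptide at 0.1 mg/mL final. GFP read by fluorescence plate reader and microscopy (% cells transfected) after 42 h at 37 °C.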

NL-1 iPS Cells = experiment: Transfection of NL-1 iPS cells with DOTMA/DOPE/peptide and eGFP plasmid, fluorescent plate reader; type: cell-based; conditions: DOTMA/DOPE 1:1 plus peptide with RRRRRRRRRRRR (SEQ ID NO: 109) at n terminus; EF1Alpha eGFP plasmid; 42 hours
some examined cell types = experiment: Transfection expression and % cells transfected over the no peptide control; type: cell-based; conditions: on some examined cell types
In short: (§1)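 Cells at 60-70% confluence got DOTMA/DOPE (1:1) mixed with peptides bearing an N-terminal R12 DNA-binding tag, complexed 10 min with EF1α-eGFP plasmid (5 μg/mL in OptiMEM); 0.01 or 0.02 mL complex per well. After 42 h at 37 °C, GFP read by fluorescence plate reader and % transfected cells by microscopy, relative to lipid without peptide.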

Jurkat Cells = experiment: Transfection of Jurkat cells with DOTMA/DOPE/peptide and eGFP plasmid, fluorescent plate reader; type: cell-based; conditions: DOTMA/DOPE 1:1 plus peptide with RRRRRRRRRRRR (SEQ ID NO: 109) at n terminus; EF1Alpha eGFP plasmid; 0.02 mL complex; 42 hours
In short: as §1

Human Fibroblast Cells = experiment: Transfection of human fibroblast cells with DOTMA/DOPE/peptide and eGFP plasmid, fluorescent plate reader; type: cell-based; conditions: DOTMA/DOPE 1:1 plus peptide with RRRRRRRRRRRR (SEQ ID NO: 109) at n terminus; EF1Alpha eGFP plasmid; 0.01 mL complex; 42 hours
In short: as §1

HeLa Cells [2] = experiment: Transfection of HeLa cells with DOTMA/DOPE/peptide and eGFP plasmid, fluorescent plate reader; type: cell-based; conditions: DOTMA/DOPE 1:1 plus peptide with RRRRRRRRRRRR (SEQ ID NO: 109) at n terminus; EF1Alpha eGFP plasmid; 0.01 mL complex; 42 hours
In short: as §1

HuVec Cells = experiment: Transfection of HuVec cells with DOTMA/DOPE/peptide and eGFP plasmid, fluorescent plate reader; type: cell-based; conditions: DOTMA/DOPE 1:1 plus peptide with RRRRRRRRRRRR (SEQ ID NO: 109) at n terminus; EF1Alpha eGFP plasmid; 0.01 mL complex; 42 hours
In short: as §1

C2C12 Cells = experiment: Transfection of C2C12 cells with DOTMA/DOPE/peptide and eGFP plasmid, fluorescent plate reader; type: cell-based, mouse; conditions: DOTMA/DOPE 1:1 plus peptide with RRRRRRRRRRRR (SEQ ID NO: 109) at n terminus; EF1Alpha eGFP plasmid; 0.02 mL complex; 42 hours
In short: as §1

[3] = 0.1 μL of DOTMA/SEQ ID NO: 72/Peptide in well of a 96 well plate
[4] = 0.2 μL of DOTMA/SEQ ID NO: 72/Peptide in well of a 96 well plate
[5] = 0.3 μL of DOTMA/SEQ ID NO: 72/Peptide in well of a 96 well plate
[6] = 0.4 μL of DOTMA/SEQ ID NO: 72/Peptide in well of a 96 well plate

Substance | RF (Relative Fluorescence), DOTMA/SEQ ID NO: 72/Peptide, HeLa Cells (HeLa Cells [1]; [3]) | RF (Relative Fluorescence), DOTMA/SEQ ID NO: 72/Peptide, HeLa Cells (HeLa Cells [1]; [4]) | RF (Relative Fluorescence), DOTMA/SEQ ID NO: 72/Peptide, HeLa Cells (HeLa Cells [1]; [5]) | RF (Relative Fluorescence), DOTMA/SEQ ID NO: 72/Peptide, HeLa Cells (HeLa Cells [1]; [6]) | RF (Relative Fluorescence) of Transfection of NL-1 iPS Cells (NL-1 iPS Cells) | transfection expression and the % cells transfected over the no peptide control (some examined cell types) | RF (Relative Fluorescence) of Transfection of Jurkat Cells (Jurkat Cells) | RF (Relative Fluorescence) of Transfection of Human Fibroblast Cells (Human Fibroblast Cells) | RF (Relative Fluorescence) of Transfection of HeLa Cells (HeLa Cells [2]) | RF (Relative Fluorescence) of Transfection of HuVec Cells (HuVec Cells) | RF (Relative Fluorescence) of Transfection of C2C12 Cells (C2C12 Cells)
347 (DLGTAGSCLRKFSTM; Peptidic transfection agent) [compound 347] | 23188 | 21493 | 16814 | 14140 | 21865 | increased | 17720 | 9255 | 22527 | 20728 | 4457
369 (TAIPSCPEGTVPLYS; Peptidic transfection agent) [compound 369] | 8737 | 16706 | 14880 | 12645 | 13124 | increased | 11085 | 7590 | 14444 | 6536 | 3322
360 (GDLGRPGRKGRPGPP; Peptidic transfection agent) [compound 360] | 9946 | 11168 | 10381 | 8995 | 27572 | increased | 16607 | 5347 | 8516 | 24042 | 2090
218 (SPPRRARVT; Peptidic transfection agent) [compound 218] | 12686 | 13103 | 10151 | 10081 | 17049 | increased | 21451 | 11230 | 11179 | 14827 | 3706
375 (LAGSCLPVFSTL; Peptidic transfection agent) [compound 375] | 22457 | 30891 | 34887 | 29024 | 5196 | increased | 4272 | 7305 | 41076 | 5542 | 5633
450 (TAGSCLRKFSCL; Peptidic transfection agent) [compound 450] | 11962 | 17346 | 12553 | 10241 | 29856 | increased | 8779 | 6996 | 21045 | 20911 | 3795
357 (SETTVKYIFRLHE; Peptidic transfection agent) [compound 357] | 7718 | 11798 | 9229 | 9107 | 15624 | increased | 2256 | 7167 | 22679 | 6009 | 4506
